Laboratory results taken from PMC11440035, “Interaction of myricetin, ampelopsin (dihydromyricetin), and their sulfate metabolites with serum albumin, cytochrome P450 (CYP2C9, 2C19, and 3A4) enzymes, and organic anion‐transporting polypeptides (OATP1B1 and OATP2B1)” (Pharmacology Research & Perspectives, 2024).
“And” between values parts separate entries of the source, which are not always exact repeats. Equal entries are not always repeated. Where two headings read alike, the source gives them in different places.

Experiments:
[1] = system: T1, human serum albumin (HSA); assay: Fluorescence quenching of HSA by flavonoids (Stern–Volmer and modified Stern–Volmer); type: binding; settings: for albumin‐bound fraction: estimated from K, 1:1 stoichiometry, 1 μM flavonoid, 600 μM HSA (≈ 40 g/L)
T1 construct: purchased Merck (Darmstadt, Germany) A1653
Procedure: Fluorescence spectroscopic measurements were performed in phosphate‐buffered saline (PBS, pH 7.4) at room temperature, using a Hitachi F‐4500 spectrofluorometer (Tokyo, Japan). Increasing amounts of flavonoids (final concentrations: 0, 1, 2, 3, 4, 5, and 6 μM) were added to HSA (2 μM), after which fluorescence emission spectra were collected (λ ex = 295 nm). UV–Vis spectra of MYR, M3′S, AMP, and A4′S were also recorded, and their inner‐filter effects were corrected as it has been reported.[37], [38] Flavonoid–HSA interactions were evaluated based on the graphical application of the Stern–Volmer equation[18], [39]: (1) I0/I=1+KSV×Q where K SV is the Stern–Volmer quenching constant, I 0 denotes the emission intensity of HSA alone at 340 nm, I marks the emission signal of albumin at 340 nm in the presence of flavonoids, while [Q] is the molar concentration of the quencher. Thereafter, binding constants (K) of the formed complexes were determined based on the modified Stern–Volmer equation[39], [40]: (2) I0/I0−I=1/fa×K×1/Q+1/fa where f a is the fraction of the accessible fluorophore.
Using the binding/association constants and assuming 1:1 stoichiometry of complex formation, we estimated the bound fractions of M3′S and A4′S in the circulation based on the following equation[41]: (3) K=FH/F×HSA where [F], [HSA], and [FH] are the molar concentrations of the unbound free flavonoid, the unbound free HSA, and the flavonoid–HSA complex, respectively. In these calculations, we hypothesized the presence of 1.0 μM levels of M3′S or A4′S in the presence of 600 μM (≈ 40 g/L) of HSA.

OATP2B1 = target: T2, OATP2B1 (Homo sapiens, UniProt O94956); assay: Inhibition of OATP2B1-mediated pyranine uptake in A431 cells; type: cell-based; settings: for inhibition at 15 min, 25 μM: human, A431 cells overexpressing OATP2B1, pH 5.5, probe pyranine, 20 μM, read-out: inhibition / reduction of OATP2B1 transport activity; for inhibition at 15 min, 25 μM / inhibition of OATP2B1 in words: 25 μM flavonoid; for IC50: 15 min, uptake buffer pH 5.5, A431-OATP2B1 cells; for inhibitory strength on OATP2B1 relative to A4′S: ratio of IC50 values
T2 construct: expressed in transfected cells; host or cells: A431
T2 sequence (O94956 1-709): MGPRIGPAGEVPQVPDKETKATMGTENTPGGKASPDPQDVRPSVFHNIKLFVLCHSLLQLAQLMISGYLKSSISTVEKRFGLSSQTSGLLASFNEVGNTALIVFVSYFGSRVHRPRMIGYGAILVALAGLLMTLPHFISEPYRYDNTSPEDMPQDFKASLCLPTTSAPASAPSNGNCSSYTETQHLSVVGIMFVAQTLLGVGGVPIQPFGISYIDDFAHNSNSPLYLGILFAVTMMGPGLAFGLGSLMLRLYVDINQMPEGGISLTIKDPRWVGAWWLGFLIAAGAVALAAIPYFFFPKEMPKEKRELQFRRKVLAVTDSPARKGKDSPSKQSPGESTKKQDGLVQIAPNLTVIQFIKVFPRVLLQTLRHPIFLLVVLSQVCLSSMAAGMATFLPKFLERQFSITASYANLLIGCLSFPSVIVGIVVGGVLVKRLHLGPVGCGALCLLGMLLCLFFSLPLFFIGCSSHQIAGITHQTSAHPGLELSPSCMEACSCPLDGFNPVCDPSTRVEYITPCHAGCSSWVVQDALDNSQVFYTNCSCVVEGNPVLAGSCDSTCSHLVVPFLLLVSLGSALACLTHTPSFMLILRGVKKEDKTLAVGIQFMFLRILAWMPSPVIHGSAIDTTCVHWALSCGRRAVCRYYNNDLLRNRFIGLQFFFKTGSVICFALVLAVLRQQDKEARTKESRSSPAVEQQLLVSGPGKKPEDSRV
Procedure: Human A431 cells overexpressing OATPs (OATP1B1 or OATP2B1) and their mock‐transfected controls were established earlier.[42], [43] The cells were maintained at 37°C with 5% CO2 in Dulbecco's Modified Eagle Medium (DMEM; Thermo Fischer Scientific, Waltham, MA, USA) supplemented with fetal bovine serum (10%), L‐glutamine (2 mM), penicillin (100 units/mL) and streptomycin (100 μg/mL).
The inhibitory impacts of MYR, AMP, and their sulfate metabolites on OATP1B1 and OATP2B1 were examined using the fluorescent dye substrates disulfopyrene (6,8‐dihydroxy‐1,3‐disulfopyrene) and pyranine, respectively.[42], [43] The day before the transport measurements, A431 cells overexpressing OATP1B1 or OATP2B1 (and their mock‐transfected controls) were seeded onto 96‐well plates at a density of 80 000 cells/well in DMEM (200 μL). Next day, the medium was removed, the cells were washed three times with PBS (pH 7.4, 200 μL) at room temperature, then the cells were pre‐incubated with 50 μL of Hank's Balanced Salt Solution (HBSS, pH 7.4; OATP1B1) or uptake buffer (pH 5.5; OATP2B1) for 5 min at 37°C with or without the flavonoids.[43] The transport reaction was started by adding 50 μL of disulfopyrene‐containing (final concentration: 10 μM) HBSS (OATP1B1 assay), or pyranine‐containing (final concentration: 20 μM) uptake buffer (OATP2B1 assay). After 10 min (OATP1B1) or 15 min (OATP2B1), the transport was stopped by removing the supernatant and washing the cells three times with ice‐cold PBS (200 μL). Then the fluorescence was measured in 200 μL of PBS using an Enspire plate reader (PerkinElmer, Waltham, MA, US) at excitation and emission wavelengths of 460/510 nm. OATP‐dependent transport was determined by subtracting the fluorescence detected in mock control cells from that of OATP‐expressing cells. Transport activity was measured based on the fluorescence signal in the absence of flavonoids (100%).

[2] = pyranine 20 μM, read-out: IC50, OATP2B1

albumin‐bound fraction [1] | inhibition at 15 min, 25 μM (OATP2B1) [%] | IC50 (OATP2B1; [2]) | binding constant (K) of flavonoid–HSA complex ([1]; modified Stern–Volmer equation, HSA 2 μM, flavonoid 0–6 μM, PBS pH 7.4, λex 295 nm, λem 340 nm) | Compound | inhibition of OATP2B1 in words (OATP2B1) | IC50 (OATP2B1; IC50, OATP2B1, pyranine 20 μM) | inhibitory strength on OATP2B1 relative to A4′S (OATP2B1)
~94% | 90 | 2150 nM and 2200 nM | – | O=C1c2c(O)cc(O)cc2OC(c2cc(O)c(OS(=O)(=O)O)c(O)c2)C1O (stereo not drawn) [A4′S, ampelopsin‐4′‐O‐sulfate] | – | – | –
– | – | – | – | O=c1c(O)c(-c2cc(O)c(O)c(O)c2)oc2cc(O)cc(O)c12 [MYR, myricetin] | almost completely blocked | 430 nM and 400 nM | five‐fold
exceeds 99% | – | 290 nM and 300 nM | – | O=c1c(O)c(-c2cc(O)c(O)c(OS(=O)(=O)O)c2)oc2cc(O)cc(O)c12 [M3′S, myricetin‐3′‐O‐sulfate] | almost completely blocked | – | seven‐fold
– | ~70 | – | 5.5 × 10^4 L/mol and ≈ 10^4 L/mol | O=C1c2c(O)cc(O)cc2O[C@H](c2cc(O)c(O)c(O)c2)[C@H]1O [AMP, ampelopsin] | – | – | –
